Assay results taken from ChEMBL document CHEMBL1148108, “Prenylated isoflavonoids from the root bark of Erythrina vogelii” (J Nat Prod, 2002).
Calls of active or inactive are those of the source. The rule behind the calls is not given here.

System: Cladosporium cucumerinum
Experiment: Antifungal activity against Cladosporium cucumerinum by TLC biautography assay
Type: functional, organism-based

In the case of `COc1cc(O)c(CC=C(C)C)cc1-c1coc2cc(O)cc(O)c2c1=O`, the Activity is reported as “inactive”.
In the case of `CC(C)=CCc1c(O)cc(O)c2c(=O)c(-c3ccc4c(c3)C=CC(C)(C)O4)coc12`, the Activity is reported as “inactive”.
For `CC(C)=CCc1c(O)cc2occ(-c3ccc4c(c3)C=CC(C)(C)O4)c(=O)c2c1O`, the Activity was “inactive”.
`CC(C)=CCc1cc(-c2coc3cc(O)cc(O)c3c2=O)cc2c1OC(C)(C)C(O)C2` (configuration not stated) was tested, and the Activity was “inactive”.
For `COc1ccc([C@@H]2COc3cc(O)c(CC=C(C)C)c(O)c3C2=O)cc1CC=C(C)C`, the Activity was “inactive”.
For `CC1(C)Oc2ccc(-c3coc4cc(O)cc(O)c4c3=O)cc2C[C@@H]1O`, the Activity was “inactive”.
In the case of `C/C(=C\Cc1cc(-c2coc3cc(O)cc(O)c3c2=O)ccc1O)CO`, the Activity is reported as “inactive”.
